Assays:
[1] = test system: immature rat uterus; test: Immature Uterine Wet Weight Assay, agonist mode (Example 906); type: in vivo; conditions: dosed PO, QDx3, uterine wet weight:body weight ratio, endometrial height
Description: All of the exemplary Formula I compounds in Tables 1 and 2 were made and characterized by LCMS [M+H]^+ (liquid chromatography mass spectroscopy) with detection of parent ion. […] ER-alpha MCF7 HCS Sinf (%) values in Table 1 were measured by the Breast Cancer Cell ERa High Content Fluorescence Imaging Degradation Assay of Example 901. […] RTP, 25 (3):226-31). […] Where more than one name is associated with a Formula I compound or intermediate, the chemical structure shall define the compound. Female immature CD-IGS rats (21 days old upon arrival) are treated for three days. Animals are dosed daily for three days. […] For Agonist Mode, Vehicle or test compound is administered orally by gavage. On the fourth day 24 hours after dose, plasma is collected for pharmacokinetic analysis. Immediately following plasma collection, the animals are euthanized and the uterus removed and weighed. […] Stained tissues are analyzed and read by a board certified pathologist. Uteri and ovaries from 4 animals per group are flash frozen in liquid N2 for transcriptional analysis, examining a select set of genes modulated by the estrogen receptor. […] U.S. Pat. […] Vehicle and Vehicle plus ethynyl estradiol (EE). All compounds were dosed PO, QDx3. Uterine Wet Weight (UWW): Body Weight ratios were calculated. The mean Endometrial Height of Uterine cross sections were measured by histology. Endometrial cell height was measured from the basement membrane to the apical (luminal) surface using a slide viewer at 20× magnification. Obliquely cut areas were avoided.

[2] = molecular target: estrogen receptor alpha (ESR1) in MCF7 breast cancer cells (Homo sapiens (Human), UniProt P03372); test: Breast Cancer Cell ERa High Content Fluorescence Imaging Degradation Assay (Example 901); type: cell-based; conditions: 4 hours, plateau of maximal effect, 0% = DMSO, 100% change = 5 nM Fulvestrant
Chain of estrogen receptor alpha (ESR1) in MCF7 breast cancer cells (P03372 whole entry): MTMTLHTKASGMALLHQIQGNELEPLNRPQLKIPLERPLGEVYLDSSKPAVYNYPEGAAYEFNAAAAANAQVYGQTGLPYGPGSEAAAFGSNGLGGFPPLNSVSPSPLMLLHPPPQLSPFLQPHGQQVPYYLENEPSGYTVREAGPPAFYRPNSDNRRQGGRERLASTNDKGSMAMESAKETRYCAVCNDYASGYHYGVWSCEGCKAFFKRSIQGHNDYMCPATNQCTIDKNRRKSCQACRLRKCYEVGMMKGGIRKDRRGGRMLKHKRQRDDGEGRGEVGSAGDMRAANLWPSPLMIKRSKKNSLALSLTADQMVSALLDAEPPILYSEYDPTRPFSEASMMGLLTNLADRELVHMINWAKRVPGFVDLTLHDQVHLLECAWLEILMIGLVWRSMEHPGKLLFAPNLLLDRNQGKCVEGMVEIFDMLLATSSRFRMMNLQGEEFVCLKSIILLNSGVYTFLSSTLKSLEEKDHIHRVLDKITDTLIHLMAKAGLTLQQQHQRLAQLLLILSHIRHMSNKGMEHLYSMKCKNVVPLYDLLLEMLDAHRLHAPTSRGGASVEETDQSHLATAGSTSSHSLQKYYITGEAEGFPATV
Description: Where more than one name is associated with a Formula I compound or intermediate, the chemical structure shall define the compound. […] Cell plates were incubated at 37° C., for 4 hours. Fixation and permeabilization were carried out using a Biotek EL406 plate washer and dispenser as follows. […] Well contents were aspirated and washed 3 times with 100 μL/well of PBS. […] Samples were incubated for 2 hours at room temperature. […] Samples were incubated for 2 hours at room temperature. […] Quantitative fluorescence imaging of ESR1 was carried out using a Cellomics Arrayscan V (Thermo). […] Channel 1 (DNA stain) was used to define the nuclear region (Circ). […] The “Robust Fit” method was used to define the inflexion point of curve (EC50) and the plateau of the maximal effect (Sinf).

[3] = test system: ER-alpha MCF7; test: ER-alpha MCF7 HCS EC50; stated as measured by in vitro cell proliferation assays of Examples 902 and 903; type: cell-based; conditions: Homo sapiens, Table 1
Procedure, shortened: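 MCF7 cells seeded 1000-2000 cells/well for 16 h, then treated with nine-point 1:2 DMSO dilution series in quadruplicate at 37 °C, 5% CO2 for 4 days. Viable cells quantified by CellTiter-Glo ATP luminescence; EC50 calculated. Controls: fulvestrant at final 100 nM, DMSO 0.2% v/v.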

SMILES | ER-alpha MCF7 HCS Sinf (%) [2] | EC50 ([3]; MCF7 cells) | EC50 ([3]; MCF7, MCF7 cells) | agonist mode UWW assay: antagonist / partial agonist [1]
C[C@@H]1Cc2c([nH]c3ccccc23)[C@@H](c2c(F)cc(/C=C/C(=O)O)cc2F)N1CC(C)(C)F [AZD9496, reference compound] | – | – | – | partial agonist
C[C@@H]1Cc2c([nH]c3ccccc23)[C@@H](c2c(F)cc(OC3CN(CCCF)C3)cc2F)N1CC(C)(C)F [Example 101, (1R,3R)-1-(2,6-difluoro-4-((1-(3-fluoropropyl)azetidin-3-yl)oxy)phenyl)-2-(2-fluoro-2-methylpropyl)-3-methyl-2,3,4,9-tetrahydro-1H-pyrido[3,4-b]indole] | −100% | – | – | antagonists
C[C@@H]1Cc2c([nH]c3ccccc23)[C@@H](c2c(F)cc(OCCN3CC(CF)C3)cc2F)N1CC(C)(C)F [Example 102, (1R,3R)-1-(2,6-difluoro-4-(2-(3-(fluoromethyl)azetidin-1-yl)ethoxy)phenyl)-2-(2-fluoro-2-methylpropyl)-3-methyl-2,3,4,9-tetrahydro-1H-pyrido[3,4-b]indole] | −98.9% | – | – | antagonists
CC(C)C(=O)N1[C@H](c2c(F)cc(OCCN3CC(CF)C3)cc2F)c2[nH]c3ccccc3c2C[C@H]1C [Example 103, 1-((1R,3R)-1-(2,6-difluoro-4-(2-(3-(fluoromethyl)azetidin-1-yl)ethoxy)phenyl)-3-methyl-3,4-dihydro-1H-pyrido[3,4-b]indol-2(9H)-yl)-2-methylpropan-1-one] | −91.8% | 0.11 nM | – | –
C[C@@H]1Cc2c([nH]c3ccccc23)[C@@H](c2c(F)cc(OC[C@H](C)N3CC[C@@H](CF)C3)cc2F)N1CC(C)(C)F [Example 108, (1R,3R)-1-(2,6-difluoro-4-((S)-2-((R)-3-(fluoromethyl)pyrrolidin-1-yl)propoxy)phenyl)-2-(2-fluoro-2-methylpropyl)-3-methyl-2,3,4,9-tetrahydro-1H-pyrido[3,4-b]indole] | −79.3% | – | – | –
C[C@@H]1Cc2c([nH]c3ccccc23)[C@@H](c2c(F)cc(OCCN3CC[C@@H](CF)C3)cc2F)N1CC(C)(C)F [Example 109, (1R,3R)-1-(2,6-difluoro-4-(2-((R)-3-(fluoromethyl)pyrrolidin-1-yl)ethoxy)phenyl)-2-(2-fluoro-2-methylpropyl)-3-methyl-2,3,4,9-tetrahydro-1H-pyrido[3,4-b]indole] | −86.5% | – | – | –
C[C@@H]1Cc2c([nH]c3ccccc23)[C@@H](c2c(F)cc(OCCN3CC(CF)C3)cc2F)N1CC1CCC1 [Example 113, (1R,3R)-2-(cyclobutylmethyl)-1-(2,6-difluoro-4-(2-(3-(fluoromethyl)azetidin-1-yl)ethoxy)phenyl)-3-methyl-2,3,4,9-tetrahydro-1H-pyrido[3,4-b]indole] | −94.8% | – | 6.18 nM | –
C[C@@H]1Cc2c([nH]c3ccccc23)[C@@H](c2c(F)cc(OCCN3CC(CF)C3)cc2F)N1CC1COC1 [Example 115, (1R,3R)-1-(2,6-difluoro-4-(2-(3-(fluoromethyl)azetidin-1-yl)ethoxy)phenyl)-3-methyl-2-(oxetan-3-ylmethyl)-2,3,4,9-tetrahydro-1H-pyrido[3,4-b]indole] | −95.5% | – | 23.1 nM | –
C[C@@H]1Cc2c([nH]c3ccccc23)[C@@H](c2c(F)cc(OCCN3CC(CF)C3)cc2F)N1C1COC1 [Example 116, (1R,3R)-1-(2,6-difluoro-4-(2-(3-(fluoromethyl)azetidin-1-yl)ethoxy)phenyl)-3-methyl-2-(oxetan-3-yl)-2,3,4,9-tetrahydro-1H-pyrido[3,4-b]indole] | −85% | – | 41.4 nM | –
C[C@@H]1Cc2c([nH]c3ccccc23)[C@@H](c2c(F)cc(OCCN3CCCC3)cc2F)N1CC(C)(C)F [Example 117, (1R,3R)-1-(2,6-difluoro-4-(2-(pyrrolidin-1-yl)ethoxy)phenyl)-2-(2-fluoro-2-methylpropyl)-3-methyl-2,3,4,9-tetrahydro-1H-pyrido[3,4-b]indole] | −71.7% | – | – | –
C[C@@H]1Cc2c([nH]c3ccccc23)[C@@H](c2c(F)cc(OCCN3CCCCC3)cc2F)N1CC(C)(C)F [Example 118, (1R,3R)-1-(2,6-difluoro-4-(2-(piperidin-1-yl)ethoxy)phenyl)-2-(2-fluoro-2-methylpropyl)-3-methyl-2,3,4,9-tetrahydro-1H-pyrido[3,4-b]indole] | −72.2% | – | – | –

Further lines, with some results ahead:

ER-alpha MCF7 HCS Sinf (%) [2] | EC50 ([3]; MCF7 cells) | EC50 ([3]; MCF7, MCF7 cells) | SMILES | agonist mode UWW assay: antagonist / partial agonist [1]
−71.3% | – | – | C[C@@H]1Cc2c([nH]c3ccccc23)[C@@H](c2c(F)cc(OCCN3CC(CO)C3)cc2F)N1CC(C)(C)F [Example 119, (1-(2-(3,5-difluoro-4-((1R,3R)-2-(2-fluoro-2-methylpropyl)-3-methyl-2,3,4,9-tetrahydro-1H-pyrido[3,4-b]indol-1-yl)phenoxy)ethyl)azetidin-3-yl)methanol] | –
−96.3% | – | 0.0562 nM | C[C@@H]1Cc2c([nH]c3ccccc23)[C@@H](c2ccc(OCCN3CC(CF)C3)cc2F)N1CC(C)(C)F [Example 120, (1R,3R)-2-(2-fluoro-2-methylpropyl)-1-(2-fluoro-4-(2-(3-(fluoromethyl)azetidin-1-yl)ethoxy)phenyl)-3-methyl-2,3,4,9-tetrahydro-1H-pyrido[3,4-b]indole] | –
−91% | – | – | CC(=O)N1[C@H](c2c(F)cc(OCCN3CC(CF)C3)cc2F)c2[nH]c3ccccc3c2C[C@H]1C [Example 121, 1-((1R,3R)-1-(2,6-difluoro-4-(2-(3-(fluoromethyl)azetidin-1-yl)ethoxy)phenyl)-3-methyl-3,4-dihydro-1H-pyrido[3,4-b]indol-2(9H)-yl)ethanone] | –
−97.8% | – | 1.4 nM | C[C@@H]1Cc2c([nH]c3ccccc23)[C@@H](c2c(F)cc(OCCN3CC(CF)C3)cc2F)N1C(=O)C(C)(C)O [Example 122, 1-((1R,3R)-1-(2,6-difluoro-4-(2-(3-(fluoromethyl)azetidin-1-yl)ethoxy)phenyl)-3-methyl-3,4-dihydro-1H-pyrido[3,4-b]indol-2(9H)-yl)-2-hydroxy-2-methylpropan-1-one] | –
−96.1% | – | 1.04 nM | C[C@@H](CO)CN1[C@H](c2c(F)cc(OCCN3CC(CF)C3)cc2F)c2[nH]c3ccccc3c2C[C@H]1C [Example 123, (R)-3-((1R,3R)-1-(2,6-difluoro-4-(2-(3-(fluoromethyl)azetidin-1-yl)ethoxy)phenyl)-3-methyl-3,4-dihydro-1H-pyrido[3,4-b]indol-2(9H)-yl)-2-methylpropan-1-ol] | –
−75% | – | 135 nM | C[C@@H]1Cc2c([nH]c3ccccc23)[C@@H](c2c(F)cc(OCCN3CC(CF)C3)cc2F)N1C(=O)C1CC(O)C1 (stereo partly drawn) [Example 124, ((1R,3R)-1-(2,6-difluoro-4-(2-(3-(fluoromethyl)azetidin-1-yl)ethoxy)phenyl)-3-methyl-3,4-dihydro-1H-pyrido[3,4-b]indol-2(9H)-yl)((1s,3S)-3-hydroxycyclobutyl) methanone] | –
−90% | – | 74.4 nM | CC(C)C(=O)N1C(c2c(F)cc(OCCN3CC(CF)C3)cc2F)c2[nH]c3ccccc3c2CC1(C)C (stereo not drawn) [Example 125, 1-(1-(2,6-difluoro-4-(2-(3-(fluoromethyl)azetidin-1-yl)ethoxy)phenyl)-3,3-dimethyl-3,4-dihydro-1H-pyrido[3,4-b]indol-2(9H)-yl)-2-methylpropan-1-one] | –
−94.4% | – | – | C[C@@H]1Cc2c([nH]c3ccccc23)[C@@H](c2c(F)cc(OCCN3CC(CF)C3)cc2F)N1S(C)(=O)=O [Example 126, (1R,3R)-1-(2,6-difluoro-4-(2-(3-(fluoromethyl)azetidin-1-yl)ethoxy)phenyl)-3-methyl-2-(methylsulfonyl)-2,3,4,9-tetrahydro-1H-pyrido[3,4-b]indole] | –
